Like-named read-outs stand apart in the source and are kept apart here.
Test system: Puccinia triticina; Synonym: Puccinia recondita f sp. tritici
Assay: Wheat brown rust (PUCCRT) disease control on wheat seedlings
Format: in vivo
Details: for pest or weed control at 121.5 g/ha: Low Volume activity at 121.5 g/H; for pest or weed control at 100 ppm: High Volume activity at 100 ppm
Description: All fungicides were evaluated using the aforementioned method for their activity vs. all target diseases, unless stated otherwise. Wheat leaf blotch and brown rust activity were also evaluated using track spray applications, in which case the fungicides were formulated as EC formulations, containing 0.1% Trycol 5941 in the spray solutions. Wheat plants (variety Yuma) were grown from seed in a greenhouse in 50% mineral soil/50% soil-less Metro mix until the first leaf was fully emerged, with 7-10 seedlings per pot. These plants were inoculated with an aqueous spore suspension of Puccinia triticina either prior to or after fungicide treatments. […] The plants were then transferred to a greenhouse set at 24° C. for disease to develop. Fungicide formulation, application and disease assessment followed the procedures as described in the Example A.

[1] = 24 h, 1 Day Protectant, read-out: PUCCRT 1DP % Control rating
[2] = 72 h, 3 Day Curative, read-out: PUCCRT 3DC % Control rating

SMILES	pest or weed control at 121.5 g/ha [1]	pest or weed control at 121.5 g/ha [2]	pest or weed control at 100 ppm [1]	pest or weed control at 100 ppm [2]
COc1ccnc(C(=O)N[C@H]2CCC[C@H](Cc3ccc(C(F)(F)F)cc3)[C@@H](CC(C)C)[C@H](C)OC2=O)c1OCOC(C)=O [Compound 23]	> 70%	< 70%	–	–
COc1ccnc(C(=O)N[C@H]2CCC[C@H](Cc3ccccc3)[C@@H](CCc3ccccc3)[C@H](C)OC2=O)c1OC(C)=O [Compound 18]	< 70%	< 70%	–	–
COc1ccnc(C(=O)N[C@H]2CCC[C@H](Cc3ccc(C(F)(F)F)cc3)[C@@H](Cc3ccc(F)cc3)[C@H](C)OC2=O)c1OCOC(=O)C(C)C [Compound 41]	< 70%	< 70%	–	–
COc1ccnc(C(=O)N[C@H]2CCC[C@H](Cc3ccc(Cl)cc3)[C@@H](CC(C)C)[C@H](C)OC2=O)c1O [Compound 76]	–	–	> 70%	< 70%
COc1ccnc(C(=O)N[C@H]2CCC[C@H](Cc3ccccc3)[C@@H](CCC(C)C)[C@H](C)OC2=O)c1OCOC(C)=O [Compound 47]	> 70%	< 70%	–	–
COc1ccnc(C(=O)N[C@H]2CCC[C@H](Cc3ccccc3)[C@@H](CCC(C)C)[C@H](C)OC2=O)c1OC(=O)C(C)C [Compound 49]	< 70%	< 70%	–	–
COc1ccnc(C(=O)N[C@H]2CCC[C@H](Cc3ccccc3)[C@@H](C3CCCC3)[C@H](C)OC2=O)c1OC(C)=O [Compound 9]	> 70%	< 70%	–	–
COc1ccnc(C(=O)N[C@H]2CCC[C@H](Cc3ccccc3)[C@@H](Cc3ccc(F)cc3)[C@H](C)OC2=O)c1OCOC(=O)C(C)C [Compound 64]	> 70%	< 70%	–	–
COc1ccnc(C(=O)N[C@H]2CCC[C@H](Cc3ccccc3)[C@@H](C3CCCC3)[C@H](C)OC2=O)c1O [Compound 75]	–	–	> 70%	< 70%
COc1ccnc(C(=O)N[C@H]2CCC[C@H](Cc3ccc(C(F)(F)F)cc3)[C@@H](Cc3ccc(OC(F)(F)F)cc3)[C@H](C)OC2=O)c1OC(C)=O [Compound 67]	< 70%	< 70%	–	–
COc1ccnc(C(=O)N[C@H]2CCC[C@H](Cc3ccc(C(F)(F)F)cc3)[C@@H](Cc3ccccc3)[C@H](C)OC2=O)c1O [Compound 81]	–	–	> 70%	< 70%
COc1ccnc(C(=O)N[C@H]2CCC[C@H](Cc3ccccc3)[C@@H](c3ccccc3)[C@H](C)OC2=O)c1OC(C)=O [Compound 53]	> 70%	< 70%	–	–
COc1ccnc(C(=O)N[C@H]2CCC[C@H](CCCc3ccccc3)[C@@H](Cc3ccc(OC(F)(F)F)cc3)[C@H](C)OC2=O)c1OC(=O)C(C)C [Compound 58, 4-methoxy-2-(((3S,7S,8R,9S)-9-methyl-2-oxo-7-(3-phenylpropyl)-8-(4-(trifluoromethoxy)benzyl)oxonan-3-yl)carbamoyl)pyridin-3-yl isobutyrate]	< 70%	< 70%	–	–
COc1ccnc(C(=O)N[C@H]2CCC[C@H](CCC(C)C)[C@@H](Cc3ccccc3)[C@H](C)OC2=O)c1O [Compound 73]	–	–	> 70%	< 70%
COc1ccnc(C(=O)N[C@H]2CCC[C@H](Cc3ccccc3)[C@@H](Cc3ccccc3)[C@H](C)OC2=O)c1OCOC(=O)C(C)C [Compound 7, ((2-(((3S,7R,8R,9S)-7,8-dibenzyl-9-methyl-2-oxooxonan-3-yl)carbamoyl)-4-methoxypyridin-3-yl)oxy)methyl isobutyrate]	> 70%	> 70%	–	–
COc1ccnc(C(=O)N[C@H]2CCC[C@H](Cc3ccc(C(F)(F)F)cc3)[C@@H](Cc3ccc(F)cc3)[C@H](C)OC2=O)c1OCOC(C)=O [Compound 39]	< 70%	< 70%	–	–
CCC[C@H]1CCC[C@H](NC(=O)c2nccc(OC)c2OC(C)=O)C(=O)O[C@@H](C)[C@@H]1Cc1ccccc1 [Compound 38]	> 70%	> 70%	–	–
CCCC[C@@H]1[C@@H](Cc2ccccc2)CCC[C@H](NC(=O)c2nccc(OC)c2OCOC(C)=O)C(=O)O[C@H]1C [Compound 2, ((2-(((3S,7R,8R,9S)-7-benzyl-8-butyl-9-methyl-2-oxooxonan-3-yl)carbamoyl)-4-methoxypyridin-3-yl)oxy)methyl acetate]	> 70%	< 70%	> 70%	> 70%
CCOCC(=O)OCOc1c(OC)ccnc1C(=O)N[C@H]1CCC[C@H](Cc2ccc(Cl)cc2)[C@@H](Cc2ccccc2)[C@H](C)OC1=O [Compound 20]	> 70%	> 70%	–	–
COc1ccnc(C(=O)N[C@H]2CCC[C@H](CCC(C)C)[C@@H](Cc3ccccc3)[C@H](C)OC2=O)c1OC(C)=O [Compound 4]	> 70%	< 70%	–	–

SMILES	pest or weed control at 121.5 g/ha [1]	pest or weed control at 121.5 g/ha [2]	pest or weed control at 100 ppm [1]	pest or weed control at 100 ppm [2]
COc1ccnc(C(=O)N[C@H]2CCC[C@H](CCCc3ccccc3)[C@@H](Cc3ccc(OC(F)(F)F)cc3)[C@H](C)OC2=O)c1O [Compound 93]	–	–	< 70%	< 70%
COc1ccnc(C(=O)N[C@H]2CCC[C@H](CCC(C)C)[C@@H](C3CCCC3)[C@H](C)OC2=O)c1OCOC(C)=O [Compound 42]	> 70%	< 70%	–	–
COc1ccnc(C(=O)N[C@H]2CCC[C@H](Cc3ccccc3)[C@@H](CCC(C)C)[C@H](C)OC2=O)c1OC(C)=O [Compound 45]	> 70%	< 70%	–	–
COc1ccnc(C(=O)N[C@H]2CCC[C@H](Cc3ccc(C(F)(F)F)cc3)[C@@H](CC(C)C)[C@H](C)OC2=O)c1OC(C)=O [Compound 22]	> 70%	< 70%	–	–
COc1ccnc(C(=O)N[C@H]2CCC[C@H](Cc3ccccc3)[C@@H](Cc3ccc(OC(F)(F)F)cc3)[C@H](C)OC2=O)c1OCOC(C)=O [Compound 68]	< 70%	< 70%	–	–
COc1ccnc(C(=O)N[C@H]2CCC[C@H](Cc3ccccc3)[C@@H](CCc3ccccc3)[C@H](C)OC2=O)c1OCOC(=O)C(C)C [Compound 17]	> 70%	< 70%	–	–
COc1ccnc(C(=O)N[C@H]2CCC[C@H](Cc3ccc(Cl)cc3)[C@@H](CC(C)C)[C@H](C)OC2=O)c1OCOC(C)=O [Compound 12]	> 70%	< 70%	–	–
COc1ccnc(C(=O)N[C@H]2CCC[C@H](Cc3ccccc3)[C@@H](Cc3ccc(OC(F)(F)F)cc3)[C@H](C)OC2=O)c1O [Compound 97]	–	–	> 70%	< 70%
COc1ccnc(C(=O)N[C@H]2CCC[C@H](CCC(C)C)[C@@H](CCc3ccccc3)[C@H](C)OC2=O)c1O [Compound 83]	–	–	> 70%	< 70%
COc1ccnc(C(=O)N[C@H]2CCC[C@H](CCCc3ccccc3)[C@@H](Cc3ccc(OC(F)(F)F)cc3)[C@H](C)OC2=O)c1OC(C)=O [Compound 57]	< 70%	< 70%	–	–
CCOCC(=O)OCOc1c(OC)ccnc1C(=O)N[C@H]1CCC[C@H](Cc2ccccc2)[C@@H](CCC(C)C)[C@H](C)OC1=O [Compound 51]	> 70%	< 70%	–	–
COc1ccnc(C(=O)N[C@H]2CCC[C@H](CCCc3ccccc3)[C@@H](CC(C)C)[C@H](C)OC2=O)c1OC(C)=O [Compound 56]	> 70%	< 70%	–	–
COc1ccnc(C(=O)N[C@H]2CCC[C@H](Cc3ccccc3)[C@@H](CC(C)C)[C@H](C)OC2=O)c1OCOC(C)=O [Compound 14]	> 70%	< 70%	–	–
CCC[C@H]1CCC[C@H](NC(=O)c2nccc(OC)c2OCOC(C)=O)C(=O)O[C@@H](C)[C@@H]1Cc1ccc(F)cc1 [Compound 48]	> 70%	> 70%	–	–
CCOCC(=O)OCOc1c(OC)ccnc1C(=O)N[C@H]1CCC[C@H](Cc2ccccc2)[C@@H](CCc2ccccc2)[C@H](C)OC1=O [Compound 16]	> 70%	> 70%	–	–
COc1ccnc(C(=O)N[C@H]2CCC[C@H](CCCc3ccccc3)[C@@H](Cc3ccccc3)[C@H](C)OC2=O)c1O [Compound 98]	–	–	> 70%	< 70%
COc1ccnc(C(=O)N[C@H]2CCC[C@H](Cc3ccccc3)[C@@H](Cc3ccccc3)[C@H](C)OC2=O)c1OCOC(C)=O [Compound 6]	> 70%	> 70%	–	–
CCC[C@H]1CCC[C@H](NC(=O)c2nccc(OC)c2OC(C)=O)C(=O)O[C@@H](C)[C@@H]1c1ccccc1 [Compound 55]	> 70%	> 70%	–	–
COc1ccnc(C(=O)N[C@H]2CCC[C@H](Cc3ccccc3)[C@@H](CCc3ccccc3)[C@H](C)OC2=O)c1O [Compound 78]	–	–	> 70%	< 70%
COc1ccnc(C(=O)N[C@H]2CCC[C@H](Cc3ccccc3)[C@@H](c3ccccc3)[C@H](C)OC2=O)c1O [Compound 90]	–	–	> 70%	> 70%

Source: patent US9700047B2, “Macrocyclic picolinamides as fungicides” (Dow AgroSciences LLC, priority 2014, dated 2017)
